Laboratory results from patent US20260108549A1, “MACROLIDE COMPOUND AND PREPARATION METHOD AND APPLICATION THEREOF” (INSTITUTE OF FEED RESEARCH, CHINESE ACADEMY OF AGRICULTURAL …, priority 2023, published 2026).
Converted amounts (≈) assume the structure as drawn.

Legend:
[1] = tested on: Escherichia coli ATCC 8099; test: Antibacterial activity, broth microdilution MIC; assay type: cell-based; details: for MIC: Escherichia coli, ATCC8099, broth microdilution, 37° C., 24 hours, working range 0.25-128 μg/mL (Gram-negative); for antibacterial effect compared with tylosin against Escherichia coli 8099: in vitro, comparison in words with positive control tylosin
Protocol: (§1) Test Example 1 Determination of the antibacterial activity of the compounds of the present invention The antibacterial activity of the compounds obtained in Examples 1-4 of the present invention were determined by using the broth microdilution method with tylosin as a positive control. A broth culture medium was added into a 96-well plate, a prepared compound solution was diluted two-fold serial dilution, and then inoculated with an appropriate amount of bacterial solution. After incubation for 24 hours, the minimum inhibitory concentration of the compound was observed. The culture medium used in the experiment was CAMHB broth, CAMHB+5% defibrillated sheep blood broth. The preserved bacteria strain was inoculated into a serum-supplemented medium and cultured at 37° C. for 16-18 hours. An appropriate amount of bacteria after the completion of subculture and saline were placed into a turbidimetric tube and calibrated to the McFarland standard with a McFarland turbidimeter. The bacterial suspension was diluted 10 times with saline to prepare test bacterial solutions of certain concentrations (5×10^5 to 5×10^6 cfu/mL) for later use. Tylosin and the compounds obtained in the examples were dissolved in methanol to the desired concentration of each compound (1.0 mg/mL), stored in sterilized brown vials, stoppered, and sealed for later use. The working concentration range against Gram-negative bacteria was 0.25 μg/mL to 128 μg/mL; and the working concentration range against Gram-positive bacteria was 0.098 μg/mL to 50 μg/mL. The 96-well plate micro double dilution method was used. […] Finally, the prepared bacterial solution (of a concentration of 5×10^5 to 5×10^6 cfu/mL) was added into the first well to the eleventh well, and the twelfth well was not added with the bacterial solution to serve as a blank control. The 96-well plate was placed in a 37° C. incubator, cultured in a static state for 24 hours to observe the bacterial growth in each well. The solution in the well that inhibited bacterial growth was transparent, and the solution in the well that could not inhibit bacterial growth was turbid. The concentration in the well with a transparent solution was selected to be the minimum inhibitory concentration (MIC) of the sample.

[2] = tested on: Streptococcus pneumoniae ATCC 49169; test: Antibacterial activity, broth microdilution MIC; assay type: cell-based; details: for MIC: Streptococcus pneumoniae, ATCC49169, broth microdilution, 37° C., 24 hours, working range 0.098-50 μg/mL (Gram-positive); for antibacterial effect compared with tylosin against Streptococcus pneumoniae ATCC 49169: in vitro, comparison in words with positive control tylosin
Protocol: as §1

Compound	MIC [1]	MIC [2]	antibacterial effect compared with tylosin against Escherichia coli 8099 [1]	antibacterial effect compared with tylosin against Streptococcus pneumoniae ATCC 49169 [2]
CC[C@H]1OC(=O)C[C@@H](O)[C@H](C)[C@@H](O[C@@H]2O[C@H](C)[C@@H](O[C@H]3C[C@@](C)(O)[C@@H](O)[C@H](C)O3)[C@H](N(C)C)[C@H]2O)[C@@H](CCNCCCO)C[C@@H](C)C(=O)/C=C/C(C)=C/[C@@H]1CO[C@@H]1O[C@H](C)[C@@H](O)[C@@H](OC)[C@H]1OC [Ia, 20-(3-hydroxypropylamino) tylosin]	128 mg/L (≈ 131 µM)	0.391 mg/L (≈ 0.401 µM)	comparable antibacterial effect to tylosin	slightly better antibacterial effect than tylosin
CC[C@H]1OC(=O)C[C@@H](O)[C@H](C)[C@@H](O[C@@H]2O[C@H](C)[C@@H](O[C@H]3C[C@@](C)(O)[C@@H](O)[C@H](C)O3)[C@H](N(C)C)[C@H]2O)[C@@H](CCN2CCC[C@H]2CO)C[C@@H](C)C(=O)/C=C/C(C)=C/[C@@H]1CO[C@@H]1O[C@H](C)[C@@H](O)[C@@H](OC)[C@H]1OC [Id, 20-((S)-2-hydroxymethyltetrahydropyrrolyl) tylosin]	128 mg/L (≈ 128 µM)	0.781 mg/L (≈ 0.78 µM)	–	–
CC[C@H]1OC(=O)C[C@@H](O)[C@H](C)[C@@H](O[C@@H]2O[C@H](C)[C@@H](O[C@H]3C[C@@](C)(O)[C@@H](O)[C@H](C)O3)[C@H](N(C)C)[C@H]2O)[C@@H](CCN2CCC[C@@H]2CO)C[C@@H](C)C(=O)/C=C/C(C)=C/[C@@H]1CO[C@@H]1O[C@H](C)[C@@H](O)[C@@H](OC)[C@H]1OC [Ic, 20-((R)-2-hydroxymethyltetrahydropyrrolyl) tylosin]	64 mg/L (≈ 63.9 µM)	0.195 mg/L (≈ 0.195 µM)	superior antibacterial effect to tylosin	superior antibacterial effect to tylosin

More lines, in order of falling MIC [1], values ahead:

MIC [1]	MIC [2]	Compound	antibacterial effect compared with tylosin against Escherichia coli 8099 [1]	antibacterial effect compared with tylosin against Streptococcus pneumoniae ATCC 49169 [2]
128 mg/L (≈ 140 µM)	0.781 mg/L (≈ 0.853 µM)	CC[C@H]1OC(=O)C[C@@H](O)[C@H](C)[C@@H](O[C@@H]2O[C@H](C)[C@@H](O[C@H]3C[C@@](C)(O)[C@@H](O)[C@H](C)O3)[C@H](N(C)C)[C@H]2O)[C@@H](CC=O)C[C@@H](C)C(=O)/C=C/C(C)=C/[C@@H]1CO[C@@H]1O[C@H](C)[C@@H](O)[C@@H](OC)[C@H]1OC [Tylosin, reference compound]	–	–
128 mg/L (≈ 127 µM)	0.781 mg/L (≈ 0.777 µM)	CC[C@H]1OC(=O)C[C@@H](O)[C@H](C)[C@@H](O[C@@H]2O[C@H](C)[C@@H](O[C@H]3C[C@@](C)(O)[C@@H](O)[C@H](C)O3)[C@H](N(C)C)[C@H]2O)[C@@H](CCN(CCO)CCO)C[C@@H](C)C(=O)/C=C/C(C)=C/[C@@H]1CO[C@@H]1O[C@H](C)[C@@H](O)[C@@H](OC)[C@H]1OC [Ib, 20-(bis(2-hydroxyethylamino)) tylosin]	–	–
